Reference: the kinase profiling compilation of Christmann-Franck et al. (2016)

Assays:
Experiment in all cases: KINOMEscan competition binding
Conditions in all cases: compound 10.0 µM
ACVR2B (human) = ACVR2B (human) (UniProt Q13705)
BTK (human) = BTK (human) (UniProt Q06187)
CAMK4 (human) = CAMK4 (human) (UniProt Q16566)
CAMKK1 (human) = CAMKK1 (human) (UniProt Q8N5S9)
CDK2 (human) = CDK2 (human) (UniProt P24941)
CDKL1 (human) = CDKL1 (human) (UniProt Q00532)
CDKL5 (human) = CDKL5 (human) (UniProt O76039)
CSNK1A1L (human) = CSNK1A1L (human) (UniProt Q8N752)
EPHA2 (human) = EPHA2 (human) (UniProt P29317)
EPHA8 (human) = EPHA8 (human) (UniProt P29322)
FGR (human) = FGR (human) (UniProt P09769)
GSK3A (human) = GSK3A (human) (UniProt P49840)
HIPK4 (human) = HIPK4 (human) (UniProt Q8NE63)
ITK (human) = ITK (human) (UniProt Q08881)
[1] = target: JAK3 JH1 catalytic (human) (UniProt P52333)
KIT (human) = KIT (human) (UniProt P10721)
LIMK2 (human) = LIMK2 (human) (UniProt P53671)
MAP2K4 (human) = MAP2K4 (human) (UniProt P45985)
MAP3K1 (human) = MAP3K1 (human) (UniProt Q13233)
MAP3K13 (human) = MAP3K13 (human) (UniProt O43283)
MAP3K7 (human) = MAP3K7 (human) (UniProt O43318)
MAP4K1 (human) = MAP4K1 (human) (UniProt Q92918)
MAPKAPK2 (human) = MAPKAPK2 (human) (UniProt P49137)
MARK3 (human) = MARK3 (human) (UniProt P27448)
MKNK1 (human) = MKNK1 (human) (UniProt Q9BUB5)
MYLK2 (human) = MYLK2 (human) (UniProt Q9H1R3)
MYLK3 (human) = MYLK3 (human) (UniProt Q32MK0)
NEK6 (human) = NEK6 (human) (UniProt Q9HC98)
NUAK2 (human) = NUAK2 (human) (UniProt Q9H093)
PDGFRB (human) = PDGFRB (human) (UniProt P09619)
PIM2 (human) = PIM2 (human) (UniProt Q9P1W9)
PIP5K1C (human) = PIP5K1C (human) (UniProt O60331)
PKN1 (human) = PKN1 (human) (UniProt Q16512)
PRKCD (human) = PRKCD (human) (UniProt Q05655)
PRKCH (human) = PRKCH (human) (UniProt P24723)
PTK2 (human) = PTK2 (human) (UniProt Q05397)
ROCK2 (human) = ROCK2 (human) (UniProt O75116)
RPS6KA4 KD2 (human) = RPS6KA4 KD2 (human) (UniProt O75676)
RPS6KA6 KD1 (human) = RPS6KA6 KD1 (human) (UniProt Q9UK32)
RPS6KA3 KD1 (human) = RPS6KA3 KD1 (human) (UniProt P51812)

Chain of MAP2K4 (human) (P45985 whole entry, looked up): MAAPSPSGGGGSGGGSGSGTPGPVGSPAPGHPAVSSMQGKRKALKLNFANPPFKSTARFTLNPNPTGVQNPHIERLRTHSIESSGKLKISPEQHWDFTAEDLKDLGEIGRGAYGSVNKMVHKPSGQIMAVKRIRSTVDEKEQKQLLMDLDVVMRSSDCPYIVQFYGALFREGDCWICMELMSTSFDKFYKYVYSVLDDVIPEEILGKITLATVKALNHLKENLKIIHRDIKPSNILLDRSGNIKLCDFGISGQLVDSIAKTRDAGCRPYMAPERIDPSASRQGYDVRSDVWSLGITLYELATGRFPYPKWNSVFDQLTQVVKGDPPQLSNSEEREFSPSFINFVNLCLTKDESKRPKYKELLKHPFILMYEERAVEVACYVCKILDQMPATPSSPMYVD
Chain of ITK (human) (Q08881 whole entry, looked up): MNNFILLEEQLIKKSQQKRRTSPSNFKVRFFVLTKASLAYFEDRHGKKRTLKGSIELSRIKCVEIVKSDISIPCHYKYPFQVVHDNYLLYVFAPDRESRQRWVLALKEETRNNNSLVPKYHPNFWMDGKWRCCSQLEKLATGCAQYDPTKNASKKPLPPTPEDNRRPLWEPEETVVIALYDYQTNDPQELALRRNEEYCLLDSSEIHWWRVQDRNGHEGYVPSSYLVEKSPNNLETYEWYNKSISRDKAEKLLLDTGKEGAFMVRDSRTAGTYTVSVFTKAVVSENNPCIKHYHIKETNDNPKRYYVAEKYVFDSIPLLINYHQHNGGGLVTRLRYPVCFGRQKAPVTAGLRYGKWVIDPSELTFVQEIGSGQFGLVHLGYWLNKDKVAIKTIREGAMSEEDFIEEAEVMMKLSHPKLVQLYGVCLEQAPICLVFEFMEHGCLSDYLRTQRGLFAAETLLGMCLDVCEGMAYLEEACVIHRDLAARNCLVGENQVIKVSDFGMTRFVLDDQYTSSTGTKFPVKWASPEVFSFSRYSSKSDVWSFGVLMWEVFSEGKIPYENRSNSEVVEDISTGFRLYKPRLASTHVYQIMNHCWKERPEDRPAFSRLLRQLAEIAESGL
Chain of MKNK1 (human) (Q9BUB5 whole entry, looked up): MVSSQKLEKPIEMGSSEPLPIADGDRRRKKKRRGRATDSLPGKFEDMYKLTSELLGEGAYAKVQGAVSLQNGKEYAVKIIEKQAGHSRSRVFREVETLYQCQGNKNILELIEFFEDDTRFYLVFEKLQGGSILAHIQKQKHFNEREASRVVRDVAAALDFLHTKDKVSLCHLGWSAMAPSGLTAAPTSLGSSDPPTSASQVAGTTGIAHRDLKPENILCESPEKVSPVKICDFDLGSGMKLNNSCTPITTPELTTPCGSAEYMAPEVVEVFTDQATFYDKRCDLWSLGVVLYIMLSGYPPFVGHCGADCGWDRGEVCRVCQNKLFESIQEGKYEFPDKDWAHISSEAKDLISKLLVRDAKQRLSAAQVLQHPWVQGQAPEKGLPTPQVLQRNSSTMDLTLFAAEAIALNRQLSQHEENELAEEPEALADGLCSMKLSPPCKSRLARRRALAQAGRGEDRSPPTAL
Chain of BTK (human) (Q06187 whole entry, looked up): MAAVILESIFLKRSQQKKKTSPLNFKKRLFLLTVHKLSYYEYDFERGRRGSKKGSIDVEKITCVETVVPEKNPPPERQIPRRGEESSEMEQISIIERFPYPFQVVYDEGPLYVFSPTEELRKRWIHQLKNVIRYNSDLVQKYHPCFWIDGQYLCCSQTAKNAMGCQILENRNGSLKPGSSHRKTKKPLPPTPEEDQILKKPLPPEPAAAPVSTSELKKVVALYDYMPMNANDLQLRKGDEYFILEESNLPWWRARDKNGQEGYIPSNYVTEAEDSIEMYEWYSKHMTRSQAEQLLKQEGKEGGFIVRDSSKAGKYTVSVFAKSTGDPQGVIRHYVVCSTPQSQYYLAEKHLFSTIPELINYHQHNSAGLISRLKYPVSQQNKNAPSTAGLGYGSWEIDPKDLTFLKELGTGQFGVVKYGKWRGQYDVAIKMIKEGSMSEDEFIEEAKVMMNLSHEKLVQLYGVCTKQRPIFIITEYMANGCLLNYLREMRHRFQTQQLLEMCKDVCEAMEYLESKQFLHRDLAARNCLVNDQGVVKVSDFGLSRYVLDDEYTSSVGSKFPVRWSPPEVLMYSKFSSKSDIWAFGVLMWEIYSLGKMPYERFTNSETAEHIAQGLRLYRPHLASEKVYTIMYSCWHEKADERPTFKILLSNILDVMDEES
Chain of PTK2 (human) (Q05397 whole entry, looked up): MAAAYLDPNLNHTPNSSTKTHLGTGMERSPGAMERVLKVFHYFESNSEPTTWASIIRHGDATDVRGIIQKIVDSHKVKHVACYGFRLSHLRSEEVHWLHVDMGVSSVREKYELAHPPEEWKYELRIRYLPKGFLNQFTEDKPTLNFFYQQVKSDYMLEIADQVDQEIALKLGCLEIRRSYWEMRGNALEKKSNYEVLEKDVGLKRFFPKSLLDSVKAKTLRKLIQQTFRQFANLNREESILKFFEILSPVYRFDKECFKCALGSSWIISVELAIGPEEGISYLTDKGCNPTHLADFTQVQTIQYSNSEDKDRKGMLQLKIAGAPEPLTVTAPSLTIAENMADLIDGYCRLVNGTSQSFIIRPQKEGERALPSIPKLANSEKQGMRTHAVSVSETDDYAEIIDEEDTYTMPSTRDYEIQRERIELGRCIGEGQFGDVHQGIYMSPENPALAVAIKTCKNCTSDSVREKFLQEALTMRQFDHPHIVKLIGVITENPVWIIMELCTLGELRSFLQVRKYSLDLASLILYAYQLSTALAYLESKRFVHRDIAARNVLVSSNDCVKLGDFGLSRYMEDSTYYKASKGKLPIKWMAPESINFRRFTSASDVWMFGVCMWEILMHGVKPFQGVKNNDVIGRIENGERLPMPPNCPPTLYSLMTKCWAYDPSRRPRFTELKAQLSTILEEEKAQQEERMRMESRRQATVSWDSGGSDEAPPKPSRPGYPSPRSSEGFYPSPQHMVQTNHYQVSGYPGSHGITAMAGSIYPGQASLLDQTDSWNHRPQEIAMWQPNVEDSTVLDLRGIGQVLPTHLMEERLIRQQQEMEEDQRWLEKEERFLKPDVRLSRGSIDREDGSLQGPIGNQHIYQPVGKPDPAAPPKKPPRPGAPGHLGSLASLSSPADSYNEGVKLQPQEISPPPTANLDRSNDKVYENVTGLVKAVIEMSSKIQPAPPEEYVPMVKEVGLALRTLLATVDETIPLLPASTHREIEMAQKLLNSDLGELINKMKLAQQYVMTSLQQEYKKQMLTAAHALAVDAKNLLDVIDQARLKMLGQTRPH
Chain of NUAK2 (human) (Q9H093 whole entry, looked up): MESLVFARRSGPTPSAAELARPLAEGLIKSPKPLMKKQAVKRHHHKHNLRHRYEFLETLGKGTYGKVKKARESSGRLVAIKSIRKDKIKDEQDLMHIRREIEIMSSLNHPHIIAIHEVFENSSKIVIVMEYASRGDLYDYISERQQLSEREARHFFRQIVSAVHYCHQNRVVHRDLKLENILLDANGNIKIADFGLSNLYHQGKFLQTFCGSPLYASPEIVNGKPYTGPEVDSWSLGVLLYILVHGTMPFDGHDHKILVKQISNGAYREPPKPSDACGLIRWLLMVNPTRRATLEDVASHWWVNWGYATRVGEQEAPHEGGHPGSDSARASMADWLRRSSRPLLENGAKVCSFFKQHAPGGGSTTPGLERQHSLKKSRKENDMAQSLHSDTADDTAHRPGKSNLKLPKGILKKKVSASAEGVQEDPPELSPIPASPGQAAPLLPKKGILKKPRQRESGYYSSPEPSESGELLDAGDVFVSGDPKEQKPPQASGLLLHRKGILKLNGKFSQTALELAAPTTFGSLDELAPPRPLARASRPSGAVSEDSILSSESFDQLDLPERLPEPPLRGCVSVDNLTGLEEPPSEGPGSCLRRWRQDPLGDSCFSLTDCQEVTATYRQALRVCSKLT
Chain of LIMK2 (human) (P53671 whole entry, looked up): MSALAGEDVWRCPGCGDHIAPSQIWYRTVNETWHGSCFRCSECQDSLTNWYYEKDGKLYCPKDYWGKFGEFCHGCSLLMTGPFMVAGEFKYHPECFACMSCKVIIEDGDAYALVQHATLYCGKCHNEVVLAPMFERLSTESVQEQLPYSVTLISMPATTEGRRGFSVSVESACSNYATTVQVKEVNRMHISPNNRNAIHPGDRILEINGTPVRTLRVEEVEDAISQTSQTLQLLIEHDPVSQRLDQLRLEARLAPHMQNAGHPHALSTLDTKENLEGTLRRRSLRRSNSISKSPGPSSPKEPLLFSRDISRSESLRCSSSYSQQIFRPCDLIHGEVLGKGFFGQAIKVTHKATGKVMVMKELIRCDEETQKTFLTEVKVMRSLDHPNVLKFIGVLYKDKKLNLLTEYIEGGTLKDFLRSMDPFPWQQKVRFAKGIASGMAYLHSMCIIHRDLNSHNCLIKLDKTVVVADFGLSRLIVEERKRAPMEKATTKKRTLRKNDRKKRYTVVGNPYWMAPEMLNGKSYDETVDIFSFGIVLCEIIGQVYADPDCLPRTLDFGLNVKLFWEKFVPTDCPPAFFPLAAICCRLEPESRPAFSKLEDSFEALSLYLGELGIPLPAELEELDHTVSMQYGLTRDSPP
Chain of MAPKAPK2 (human) (P49137 whole entry, looked up): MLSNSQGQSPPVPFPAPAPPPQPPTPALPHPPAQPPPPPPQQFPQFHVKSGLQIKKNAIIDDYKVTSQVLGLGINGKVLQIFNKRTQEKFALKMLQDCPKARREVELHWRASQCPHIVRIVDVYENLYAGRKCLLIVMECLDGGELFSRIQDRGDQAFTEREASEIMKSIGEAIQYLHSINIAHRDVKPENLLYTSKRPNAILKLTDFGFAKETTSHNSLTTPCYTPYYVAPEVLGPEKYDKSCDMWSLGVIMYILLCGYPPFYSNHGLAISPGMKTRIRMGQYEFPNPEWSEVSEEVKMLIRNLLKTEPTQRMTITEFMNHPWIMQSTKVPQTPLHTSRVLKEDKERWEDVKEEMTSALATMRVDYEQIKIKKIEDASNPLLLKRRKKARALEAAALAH

| Compound | kinase still bound, per cent of control (ACVR2B (human)) [%] | kinase still bound, per cent of control (BTK (human)) [%] | kinase still bound, per cent of control (CAMK4 (human)) [%] | kinase still bound, per cent of control (CAMKK1 (human)) [%] | kinase still bound, per cent of control (CDK2 (human)) [%] | kinase still bound, per cent of control (CDKL5 (human)) [%] | kinase still bound, per cent of control (CSNK1A1L (human)) [%] | kinase still bound, per cent of control (EPHA2 (human)) [%] | kinase still bound, per cent of control (EPHA8 (human)) [%] | kinase still bound, per cent of control (FGR (human)) [%] | kinase still bound, per cent of control (GSK3A (human)) [%] | kinase still bound, per cent of control (HIPK4 (human)) [%] | kinase still bound, per cent of control (ITK (human)) [%] | kinase still bound, per cent of control [1] [%] | kinase still bound, per cent of control (KIT (human)) [%] | kinase still bound, per cent of control (LIMK2 (human)) [%] | kinase still bound, per cent of control (MAP2K4 (human)) [%] | kinase still bound, per cent of control (MAP3K13 (human)) [%] | kinase still bound, per cent of control (MAP3K7 (human)) [%] | kinase still bound, per cent of control (MAP4K1 (human)) [%] | other results |
| --- | --- | --- | --- | --- | --- | --- | --- | --- | --- | --- | --- | --- | --- | --- | --- | --- | --- | --- | --- | --- | --- |
| N#C/C(=C1/Nc2ccccc2S1)c1ccnc(NCCc2cccnc2)n1 | 98 | 77 | 100 | 83 | 90 | 82 | 67 | 80 | 100 | 100 | 0.6 | 42 | 100 | 10 | 31 | 96 | 1.1 | 100 | 22 | 100 | kinase still bound, per cent of control (CDKL1 (human)): 45%; kinase still bound, per cent of control (MAP3K1 (human)): 65%; kinase still bound, per cent of control (MAPKAPK2 (human)): 100%; kinase still bound, per cent of control (MARK3 (human)): 100%; kinase still bound, per cent of control (MKNK1 (human)): 97%; kinase still bound, per cent of control (MYLK2 (human)): 100%; kinase still bound, per cent of control (MYLK3 (human)): 100%; kinase still bound, per cent of control (NEK6 (human)): 100%; kinase still bound, per cent of control (NUAK2 (human)): 100%; kinase still bound, per cent of control (PDGFRB (human)): 64%; kinase still bound, per cent of control (PIM2 (human)): 20%; kinase still bound, per cent of control (PIP5K1C (human)): 8.2%; kinase still bound, per cent of control (PKN1 (human)): 95%; kinase still bound, per cent of control (PRKCD (human)): 100%; kinase still bound, per cent of control (PRKCH (human)): 100%; kinase still bound, per cent of control (PTK2 (human)): 100%; kinase still bound, per cent of control (ROCK2 (human)): 23%; kinase still bound, per cent of control (RPS6KA4 KD2 (human)): 57%; kinase still bound, per cent of control (RPS6KA6 KD1 (human)): 28% |
| COc1cc2c(Nc3ccc(NC(=O)c4ccccc4)cc3)ncnc2cc1OCCCN1CCOCC1 | 100 | 7.3 | 100 | 76 | 82 | 46 | 99 | 84 | 83 | 19 | 100 | 4.9 | 100 | 62 | 0 | 78 | 100 | 27 | 49 | 60 | kinase still bound, per cent of control (CDKL1 (human)): 81%; kinase still bound, per cent of control (MAP3K1 (human)): 92%; kinase still bound, per cent of control (MAPKAPK2 (human)): 100%; kinase still bound, per cent of control (MARK3 (human)): 96%; kinase still bound, per cent of control (MKNK1 (human)): 100%; kinase still bound, per cent of control (MYLK2 (human)): 100%; kinase still bound, per cent of control (MYLK3 (human)): 100%; kinase still bound, per cent of control (NEK6 (human)): 100%; kinase still bound, per cent of control (NUAK2 (human)): 94%; kinase still bound, per cent of control (PDGFRB (human)): 1.1%; kinase still bound, per cent of control (PIM2 (human)): 100%; kinase still bound, per cent of control (PIP5K1C (human)): 69%; kinase still bound, per cent of control (PKN1 (human)): 100%; kinase still bound, per cent of control (PRKCD (human)): 100%; kinase still bound, per cent of control (PRKCH (human)): 100%; kinase still bound, per cent of control (PTK2 (human)): 62%; kinase still bound, per cent of control (ROCK2 (human)): 34%; kinase still bound, per cent of control (RPS6KA4 KD2 (human)): 100%; kinase still bound, per cent of control (RPS6KA6 KD1 (human)): 68% |
| CCOc1cc(N2CCC(O)CC2)ccc1Nc1ncc2c(n1)N(C)c1ccccc1C(=O)N2C | 100 | 100 | 100 | 100 | 100 | 100 | 100 | 100 | 100 | 100 | 100 | 100 | 100 | 100 | 100 | 100 | 100 | 100 | 100 | 100 | kinase still bound, per cent of control (MAP3K1 (human)): 100%; kinase still bound, per cent of control (MAPKAPK2 (human)): 100%; kinase still bound, per cent of control (MARK3 (human)): 100%; kinase still bound, per cent of control (MKNK1 (human)): 100%; kinase still bound, per cent of control (MYLK2 (human)): 100%; kinase still bound, per cent of control (MYLK3 (human)): 100%; kinase still bound, per cent of control (NEK6 (human)): 100%; kinase still bound, per cent of control (NUAK2 (human)): 100%; kinase still bound, per cent of control (PDGFRB (human)): 100%; kinase still bound, per cent of control (PIM2 (human)): 100%; kinase still bound, per cent of control (PKN1 (human)): 100%; kinase still bound, per cent of control (PRKCD (human)): 100%; kinase still bound, per cent of control (PRKCH (human)): 100%; kinase still bound, per cent of control (PTK2 (human)): 100%; kinase still bound, per cent of control (ROCK2 (human)): 100%; kinase still bound, per cent of control (RPS6KA3 KD1 (human)): 100%; kinase still bound, per cent of control (RPS6KA4 KD2 (human)): 100%; kinase still bound, per cent of control (RPS6KA6 KD1 (human)): 100% |
| CCN(CCO)CCCOc1ccc2c(Nc3cc(CC(=O)Nc4cccc(F)c4)[nH]n3)ncnc2c1 | 100 | 7.2 | 100 | 71 | 84 | 50 | 99 | 76 | 90 | 82 | 100 | 4.5 | 96 | 87 | 0 | 100 | 100 | 100 | 16 | 76 | kinase still bound, per cent of control (CDKL1 (human)): 84%; kinase still bound, per cent of control (MAPKAPK2 (human)): 100%; kinase still bound, per cent of control (MARK3 (human)): 88%; kinase still bound, per cent of control (MKNK1 (human)): 68%; kinase still bound, per cent of control (MYLK2 (human)): 87%; kinase still bound, per cent of control (MYLK3 (human)): 98%; kinase still bound, per cent of control (NUAK2 (human)): 54%; kinase still bound, per cent of control (PDGFRB (human)): 0%; kinase still bound, per cent of control (PIM2 (human)): 100%; kinase still bound, per cent of control (PIP5K1C (human)): 75%; kinase still bound, per cent of control (PKN1 (human)): 90%; kinase still bound, per cent of control (PRKCD (human)): 91%; kinase still bound, per cent of control (PRKCH (human)): 100%; kinase still bound, per cent of control (PTK2 (human)): 64%; kinase still bound, per cent of control (ROCK2 (human)): 66%; kinase still bound, per cent of control (RPS6KA3 KD1 (human)): 80%; kinase still bound, per cent of control (RPS6KA4 KD2 (human)): 79%; kinase still bound, per cent of control (RPS6KA6 KD1 (human)): 74% |
